Laboratory results reported in patent US20240400542A1 (University of Virginia Patent Foundation, priority 2021, published 2024).

What was measured:
Assay in all cases: SILAC competitive chemical proteomic assay (TH211 probe, LC-MS/MS)
Format in all cases: cell-based
14-3-3 protein epsilon = biological target: T1, 14-3-3 protein epsilon (Homo sapiens, UniProt P62258); conditions: TH207 inhibitor; HEK293T soluble fraction; P62258.1 lysine 215
T1 construct: endogenous in cells; host or cells: HEK293T
T1 sequence (P62258 1-255): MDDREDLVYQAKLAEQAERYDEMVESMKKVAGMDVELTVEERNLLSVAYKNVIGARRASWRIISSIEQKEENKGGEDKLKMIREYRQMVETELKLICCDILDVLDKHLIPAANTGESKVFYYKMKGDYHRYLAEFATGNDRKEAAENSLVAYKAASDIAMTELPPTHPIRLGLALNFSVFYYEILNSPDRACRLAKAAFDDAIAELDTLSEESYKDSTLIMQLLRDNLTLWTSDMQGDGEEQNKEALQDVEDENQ
Method: (§1) The light and heavy proteomes (2.3 mg/mL, 432 μL) prepared from HEK293T cells that were pretreated in situ with vehicle (DMSO) or the inhibitor (2 μM), respectively, at 37° C. for 1 hr followed by probe TH211 treatment (50 μM) for 2 h, were directly were subjected to click reaction with the desthiobiotin-PEG3-azide (10 mM in DMSO, 10 μL, final concentration 200 μM) in the presence of TCEP (50 mM, 10 μL), TBTA (1.7 mM, 33 μL) and CuSO4 (50 mM, 10 μL) at room temperature for 1 hr. The light and the heavy samples were mixed in the chloroform-methanol extraction step. The subsequent steps including reduction with dithiothreitol, alkylation with iodoacetamide, digestion with Trypsin/Lys-C, enrichment with avidin beads were conducted as previously described^26.

Alpha-enolase = biological target: T2, Alpha-enolase (Homo sapiens, UniProt P06733); conditions: TH207 inhibitor; HEK293T soluble fraction; P06733.2 lysine 80
T2 construct: endogenous in cells; host or cells: HEK293T
T2 sequence (P06733 whole entry): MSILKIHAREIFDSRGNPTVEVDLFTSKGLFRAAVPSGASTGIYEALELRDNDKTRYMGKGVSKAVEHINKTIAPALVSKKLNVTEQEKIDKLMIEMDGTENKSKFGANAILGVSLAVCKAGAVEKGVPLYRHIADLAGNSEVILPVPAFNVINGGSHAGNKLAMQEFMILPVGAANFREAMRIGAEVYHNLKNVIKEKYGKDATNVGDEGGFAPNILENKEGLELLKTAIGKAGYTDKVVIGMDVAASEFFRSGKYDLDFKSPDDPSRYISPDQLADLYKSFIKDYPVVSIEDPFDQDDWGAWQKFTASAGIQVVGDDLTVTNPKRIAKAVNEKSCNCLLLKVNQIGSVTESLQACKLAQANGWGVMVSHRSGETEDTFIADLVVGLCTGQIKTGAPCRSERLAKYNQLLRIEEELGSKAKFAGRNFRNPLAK
Method: as §1

[1] = biological target: T3, Inosine-5′-monophosphate dehydrogenase 2 (Homo sapiens, UniProt P12268); conditions: TH207 inhibitor; HEK293T soluble fraction; P12268.2 tyrosine 509
T3 construct: endogenous in cells; host or cells: HEK293T
T3 sequence (P12268 2-514 limits assumed): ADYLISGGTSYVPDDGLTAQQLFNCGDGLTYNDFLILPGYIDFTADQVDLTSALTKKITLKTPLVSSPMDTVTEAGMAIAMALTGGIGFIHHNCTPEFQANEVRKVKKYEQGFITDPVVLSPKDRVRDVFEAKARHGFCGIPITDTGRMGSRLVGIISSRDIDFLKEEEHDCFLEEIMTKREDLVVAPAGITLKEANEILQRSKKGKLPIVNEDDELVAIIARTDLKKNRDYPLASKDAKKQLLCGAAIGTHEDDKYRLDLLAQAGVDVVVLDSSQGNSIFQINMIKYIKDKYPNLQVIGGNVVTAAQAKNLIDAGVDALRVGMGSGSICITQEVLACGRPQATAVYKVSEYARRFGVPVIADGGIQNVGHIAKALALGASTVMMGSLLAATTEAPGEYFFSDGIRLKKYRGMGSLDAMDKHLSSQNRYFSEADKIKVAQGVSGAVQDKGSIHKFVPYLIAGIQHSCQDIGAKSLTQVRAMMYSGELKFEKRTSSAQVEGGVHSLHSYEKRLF
Method: as §1

Perilipin-2 = biological target: T4, Perilipin-2 (Homo sapiens, UniProt Q99541); conditions: TH207 inhibitor; HEK293T soluble fraction; Q99541.2 tyrosine 190
T4 construct: endogenous in cells; host or cells: HEK293T
T4 sequence (Q99541 1-437): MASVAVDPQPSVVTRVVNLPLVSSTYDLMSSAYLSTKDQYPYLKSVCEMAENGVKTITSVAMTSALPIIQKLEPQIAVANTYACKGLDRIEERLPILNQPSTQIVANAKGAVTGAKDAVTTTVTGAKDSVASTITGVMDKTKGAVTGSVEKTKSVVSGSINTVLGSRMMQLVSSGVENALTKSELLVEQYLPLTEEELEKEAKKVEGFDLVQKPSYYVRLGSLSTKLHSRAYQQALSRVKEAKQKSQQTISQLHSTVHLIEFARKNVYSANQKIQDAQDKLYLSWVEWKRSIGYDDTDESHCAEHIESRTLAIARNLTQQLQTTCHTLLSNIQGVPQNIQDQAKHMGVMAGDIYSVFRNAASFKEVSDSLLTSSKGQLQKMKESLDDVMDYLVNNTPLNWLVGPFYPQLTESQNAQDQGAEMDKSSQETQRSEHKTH
Method: as §1

[2] = biological target: T5, Phosphatidylinositol transfer protein beta isoform (Homo sapiens, UniProt P48739); conditions: TH207 inhibitor, HEK293T soluble fraction
T5 construct: endogenous in cells; host or cells: HEK293T
T5 sequence (P48739 1-271): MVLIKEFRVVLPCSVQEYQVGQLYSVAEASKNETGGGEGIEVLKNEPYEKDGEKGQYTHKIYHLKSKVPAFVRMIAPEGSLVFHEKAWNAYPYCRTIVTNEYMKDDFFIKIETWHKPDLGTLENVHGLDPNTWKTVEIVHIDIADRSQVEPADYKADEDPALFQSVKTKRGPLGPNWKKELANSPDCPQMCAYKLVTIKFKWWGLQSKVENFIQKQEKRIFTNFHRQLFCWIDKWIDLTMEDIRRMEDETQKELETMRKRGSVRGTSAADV
Method: as §1

[3] = biological target: T6, Phosphotyrosine protein phosphatase (Homo sapiens, UniProt P24666); conditions: TH207 inhibitor; HEK293T soluble fraction; P24666.3 tyrosine 132
T6 construct: endogenous in cells; host or cells: HEK293T
T6 sequence (P24666 1-158): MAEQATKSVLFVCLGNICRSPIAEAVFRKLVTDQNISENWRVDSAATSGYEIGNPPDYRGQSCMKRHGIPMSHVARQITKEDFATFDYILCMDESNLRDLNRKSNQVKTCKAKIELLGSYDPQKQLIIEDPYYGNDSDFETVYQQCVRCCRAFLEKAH
Method: as §1

[4] = biological target: T7, Proteasome subunit alpha type-2 (Homo sapiens, UniProt P25787); conditions: TH207 inhibitor; HEK293T soluble fraction; P25787.2 lysine 92
T7 construct: endogenous in cells; host or cells: HEK293T
Method: as §1

Sorting nexin-6 = biological target: T8, Sorting nexin-6 (Homo sapiens, UniProt Q9UNH7); conditions: TH207 inhibitor; HEK293T soluble fraction; Q9UNH7.1 lysine 204
T8 construct: endogenous in cells; host or cells: HEK293T
T8 sequence (Q9UNH7 1-406): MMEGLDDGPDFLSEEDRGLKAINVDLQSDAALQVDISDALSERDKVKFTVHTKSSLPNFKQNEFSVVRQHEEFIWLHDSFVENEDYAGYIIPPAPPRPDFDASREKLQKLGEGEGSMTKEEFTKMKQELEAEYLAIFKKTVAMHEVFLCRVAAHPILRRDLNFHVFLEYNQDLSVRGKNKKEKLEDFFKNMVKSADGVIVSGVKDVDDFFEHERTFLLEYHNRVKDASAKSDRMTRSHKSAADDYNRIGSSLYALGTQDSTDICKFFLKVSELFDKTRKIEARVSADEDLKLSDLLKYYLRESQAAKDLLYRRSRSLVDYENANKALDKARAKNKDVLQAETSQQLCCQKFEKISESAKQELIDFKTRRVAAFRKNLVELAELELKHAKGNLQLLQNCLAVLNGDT
Method: as §1

dCTP pyrophosphatase 1 = biological target: T9, dCTP pyrophosphatase 1 (Homo sapiens, UniProt Q9H773); conditions: TH207 inhibitor; HEK293T soluble fraction; Q9H773.1 tyrosine 129
T9 construct: endogenous in cells; host or cells: HEK293T
T9 sequence (Q9H773 1-170): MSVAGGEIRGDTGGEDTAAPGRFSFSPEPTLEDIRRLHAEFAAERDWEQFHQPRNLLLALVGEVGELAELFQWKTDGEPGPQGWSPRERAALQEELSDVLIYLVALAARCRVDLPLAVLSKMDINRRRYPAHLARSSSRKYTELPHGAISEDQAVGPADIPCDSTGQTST
Method: as §1

Structure (SMILES): Cc1ccc(S(=O)(=O)n2cc(CCN3CCC(=C(c4ccc(F)cc4)c4ccc(F)cc4)CC3)nn2)cc1 [TH207, 4-(Bis(4-fluorophenyl)methylene)-1-(2-(1-tosyl-1H-1,2,3-triazol-4-yl)ethyl)piperidine]
- Normalized SILAC ratio (SR), 14-3-3 protein epsilon K215 (14-3-3 protein epsilon): 3.7
- Normalized SILAC ratio (SR), Alpha-enolase K80 (Alpha-enolase): 1.6
- Normalized SILAC ratio (SR), Inosine-5′-monophosphate dehydrogenase 2 Y509 [1]: 1.6
- Normalized SILAC ratio (SR), Perilipin-2 Y190 (Perilipin-2): 3.5
- Normalized SILAC ratio (SR), Phosphatidylinositol transfer protein beta isoform K155 ([2]; P48739.2 lysine 155): 1.8
- Normalized SILAC ratio (SR), Phosphatidylinositol transfer protein beta isoform Y154 ([2]; P48739.2 tyrosine 154): 1.8
- Normalized SILAC ratio (SR), Phosphotyrosine protein phosphatase Y132 [3]: 1.9
- Normalized SILAC ratio (SR), Proteasome subunit alpha type-2 K92 [4]: 1.2
- Normalized SILAC ratio (SR), Sorting nexin-6 K204 (Sorting nexin-6): 6.9
- Normalized SILAC ratio (SR), dCTP pyrophosphatase 1 Y129 (dCTP pyrophosphatase 1): 3
